# Assay results published in paper PMC6429200, “Synthesis and Broad Antiviral Activity of Novel 2-aryl-isoindolin-1-ones towards Diverse Enterovirus A71 Clinical Isolates” (Molecules, 2019).
# Columns and labels:
# [1] = Cytotoxicity assay (CPE) on Vero cells; type: cell-based; conditions: African green monkey; Vero cells, 3 days of incubation, Reed–Muench; read-out: CC50
# Experimental: (§1) An in-vitro antiviral assay was established using the Africa monkey kidney cell line Vero which was infected with different EV-A71 clinical isolates (BrCr, H, Shenzhen98 and Jiangsu52). A total of 24 synthetic compounds were initially screened in such an assay to determine their inhibitory effect on virus replication at 3-fold diluted concentrations serial (400~0.18 μM). The 50% effective concentration (EC50) of each compound was calculated according to its inhibitory rate values with the Reed–Muench method. The 50% cytotoxic concentration (CC50) was defined as the concentration that inhibited 50% cellular growth in comparison with the controls. The selectivity index (SI) was calculated as CC50/EC50. […] Generally, the EV-A71 H strain was less sensitive to most of the active compounds as compared to the other virus strains.
# African green monkey kidney (Vero) cells were purchased from the American Type Culture Collection (ATCC) and were cultured in minimum essential medium (MEM) supplemented with 10% fetal bovine serum (FBS) (GIBCO) and antibiotics (100 U/mL penicillin and […] streptomycin) at 37 °C in a 5% CO2 incubator.
# The cytotoxic effects of compounds on Vero cells were detected by the cytopathic effect (CPE) assay. Briefly, cells (3 × 10^4 cells/well) were seeded into 96-well culture plates and incubated overnight. Then, the medium was removed and different concentrations of compounds were applied in triplicate. After 3 days of incubation, the CC50 was defined as the concentration that inhibited 50% cellular growth in comparison with the untreated controls, as calculated by the Reed–Muench method.
# EV-A71 strain BrCr = experiment: CPE inhibition assay for anti-EV-A71 in Vero cells, BrCr strain; type: cell-based, Enterovirus 71 (EV-A71); conditions: for BrCr SI: CC50/EC50; for EC50: Enterovirus A, EVA71, Vero cells, 100TCID50, 48 h
# Experimental: as §1
# (§2) EV-A71 strain ShenZhen98 (SZ98) was isolated from the throat swab sample of an HFMD case which occurred in 1998 in China. This was kindly provided by Dr. Qi Jin, Institute of Pathogen Biology, Chinese Academy of Medical Science and Peking Union Medical School, Beijing, China. EV-A71 strains BrCr (VR-1775) and H (VR-1432) were purchased from the ATCC. The EV-A71 strain JS52 was a kind gift from Dr. Xiangzhong Ye, Beijing Wantai Biological Pharmacy Enterprise Co., Ltd. EV-A71 were all passaged in Vero cells.
# (§3) The anti-EV-A71 activity of compounds was determined by the CPE inhibition method. Briefly, cells (3 × 10^4 cells/well) were plated into 96-well culture plates for incubation for 24 h. The medium was then removed and cells were infected with EV-A71 with 100TCID50 (50% tissue culture infective doses) in serum-free medium for 1 h at 37 °C. Then, the unbound viruses were removed and various concentrations of compounds were supplemented and incubated for another 48 h. The EC50 was determined by the Reed–Muench method. The selectivity index was calculated as the ratio of CC50/EC50 [15].
# EV-A71 strain H = experiment: CPE inhibition assay for anti-EV-A71 in Vero cells, H strain; type: cell-based, Enterovirus 71 (EV-A71); conditions: for H SI: CC50/EC50; for EC50: Enterovirus A, EVA71, Vero cells, 100TCID50, 48 h
# Experimental: as §1, §2, §3
# [2] = test system: EV-A71 strain ShenZhen98 (SZ98); experiment: CPE inhibition assay for anti-EV-A71 in Vero cells, Shenzhen98 strain; type: cell-based, Enterovirus 71 (EV-A71); conditions: for Shenzhen98 SI: CC50/EC50; for EC50: Enterovirus A, EVA71, Vero cells, 100TCID50, 48 h
# Experimental: as §1, §2, §3
# [3] = test system: EV-A71 strain Jiangsu52 (JS52); experiment: CPE inhibition assay for anti-EV-A71 in Vero cells, Jiangsu52 strain; type: cell-based, Enterovirus 71 (EV-A71); conditions: for Jiangsu52 SI: CC50/EC50; for EC50: Enterovirus A, EVA71, Vero cells, 100TCID50, 48 h
# Experimental: as §1, §2, §3
SMILES,EC50 (EV-A71 strain BrCr),EC50 (EV-A71 strain H),EC50 [2],EC50 [3],CC50 at 3 days [1],BrCr SI (EV-A71 strain BrCr),H SI (EV-A71 strain H),Shenzhen98 SI [2],Jiangsu52 SI [3]
"O=C1c2ccccc2CN1c1ccccc1 [Compound A1, 22-phenylisoindolin-1-one]",7.87 ± 0.91 µM,28.7 ± 4.07 µM,7.87 ± 0.91 µM,7.87 ± 0.91 µM,370 ± 39.8 µM,47,13,47,47
"CN1CCN(C(=O)c2ccc(N3Cc4ccccc4C3=O)cc2)CC1 [Compound A11, 2-(4-(4-methylpiperazine-1-carbonyl)phenyl)isoindolin-1-one]",–,–,–,–,115 µM,/ (/ represents selectivity index (SI) value of less than 10),/ (/ represents selectivity index (SI) value of less than 10),/ (/ represents selectivity index (SI) value of less than 10),/ (/ represents selectivity index (SI) value of less than 10)
"O=C1c2ccccc2CN1c1ccc2ccncc2c1 [Compound A9, 2-(isoquinolin-7-yl)isoindolin-1-one]",17 ± 2.92 µM,–,17 ± 2.92 µM,17 ± 2.92 µM,96.5 ± 9.34 µM,/ (/ represents selectivity index (SI) value of less than 10),/ (/ represents selectivity index (SI) value of less than 10),/ (/ represents selectivity index (SI) value of less than 10),/ (/ represents selectivity index (SI) value of less than 10)
"CCCN(CCC)c1ccc2c(c1)CN(c1ccc(OC)cc1)C2=O [Compound B4, 5-(dipropylamino)-2-(4-methoxyphenyl)isoindolin-1-one]",–,–,–,–,124 ± 12.6 µM,/ (/ represents selectivity index (SI) value of less than 10),/ (/ represents selectivity index (SI) value of less than 10),/ (/ represents selectivity index (SI) value of less than 10),/ (/ represents selectivity index (SI) value of less than 10)
"CCC(=O)Nc1ccc2c(c1)CN(c1ccc(C)cc1)C2=O [Compound C3, N-(1-oxo-2-(p-tolyl)isoindolin-5-yl)propionamide]",–,–,–,–,113 ± 17.2 µM,/ (/ represents selectivity index (SI) value of less than 10),/ (/ represents selectivity index (SI) value of less than 10),/ (/ represents selectivity index (SI) value of less than 10),/ (/ represents selectivity index (SI) value of less than 10)
"COc1ccc(N2Cc3ccc(N)cc3C2=O)cc1 [Compound 4, 6-amino-2-(4-methoxyphenyl)isoindolin-1-one]",5.27 ± 0.44 µM,11.7 ± 2.1 µM,5.27 ± 0.44 µM,5.74 ± 0.54 µM,231 µM,44,19,43,40
"COc1cc(N2Cc3ccccc3C2=O)cc(OC)c1OC [Compound A8, 2-(3,4,5-trimethoxyphenyl)isoindolin-1-one]",12.6 ± 2.22 µM,–,13 ± 2 µM,12.6 ± 2.22 µM,76.5 ± 13.1 µM,/ (/ represents selectivity index (SI) value of less than 10),/ (/ represents selectivity index (SI) value of less than 10),/ (/ represents selectivity index (SI) value of less than 10),/ (/ represents selectivity index (SI) value of less than 10)
"O=C(c1ccc(N2Cc3ccccc3C2=O)cc1)N1CCOCC1 [Compound A12, 2-(4-(morpholin-4-carbonyl)phenyl)isoindolin-1-one]",27 ± 3.38 µM,24.4 ± 9.37 µM,30.3 ± 2.38 µM,30.3 ± 2.38 µM,180 ± 27.3 µM,/ (/ represents selectivity index (SI) value of less than 10),/ (/ represents selectivity index (SI) value of less than 10),/ (/ represents selectivity index (SI) value of less than 10),/ (/ represents selectivity index (SI) value of less than 10)
"COc1ccc(N2Cc3cc(N)ccc3C2=O)cc1 [Compound 5, 5-amino-2-(4-methoxyphenyl)isoindolin-1-one]",9.12 ± 0.76 µM,16.2 ± 1.9 µM,9.12 ± 0.76 µM,9.7 ± 0.76 µM,159 ± 17.1 µM,17,–,17,16
"O=C(O)c1ccc(N2Cc3ccccc3C2=O)cc1 [Compound A10, 4-(1-oxoisoindolin-2-yl)benzoic acid]",12.9 ± 2.24 µM,13.7 ± 5.71 µM,14.6 ± 2.24 µM,14.6 ± 2.24 µM,46.2 µM,/ (/ represents selectivity index (SI) value of less than 10),/ (/ represents selectivity index (SI) value of less than 10),/ (/ represents selectivity index (SI) value of less than 10),/ (/ represents selectivity index (SI) value of less than 10)

# The next lines start with results.
EC50 (EV-A71 strain BrCr),EC50 (EV-A71 strain H),EC50 [2],EC50 [3],SMILES,CC50 at 3 days [1],BrCr SI (EV-A71 strain BrCr),H SI (EV-A71 strain H),Shenzhen98 SI [2],Jiangsu52 SI [3]
34.6 ± 6.54 µM,–,34.6 ± 6.54 µM,40.3 ± 5.54 µM,"CCCN(CCC)c1ccc2c(c1)C(=O)N(c1ccc(OC)cc1)C2 [Compound B2, 6-(dipropylamino)-2-(4-methoxyphenyl)isoindolin-1-one]",257 ± 35.3 µM,/ (/ represents selectivity index (SI) value of less than 10),/ (/ represents selectivity index (SI) value of less than 10),/ (/ represents selectivity index (SI) value of less than 10),/ (/ represents selectivity index (SI) value of less than 10)
18.4 ± 2.41 µM,–,18.4 ± 2.41 µM,20.6 ± 1.01 µM,"CCCNc1ccc2c(c1)CN(c1ccc(OC)cc1)C2=O [Compound B3, 2-(4-methoxyphenyl)-5-(propylamino)isoindolin-1-one]",231 µM,13,/ (/ represents selectivity index (SI) value of less than 10),13,11
5.85 ± 0.6 µM,> 44.4 µM,5.85 ± 0.6 µM,5.91 ± 0.65 µM,"CCC(=O)Nc1ccc2c(c1)C(=O)N(c1ccc(OC)cc1)C2 [Compound C1, N-(2-(4-methoxyphenyl)-3-oxoisoindolin-5-yl)propionamide]",152 ± 27 µM,26,/ (/ represents selectivity index (SI) value of less than 10),26,25
